Data set [1] has as its target I1-Imidazoline binding sites. Conditions: Bovine ventrolateral medulla; cited from earlier work.
Data set [2] concerns the target I2-Imidazoline binding sites. Conditions: Rat stomach membranes; cited from earlier work.
Data set [3] deals with σ2-Binding sites (Rattus norvegicus, UniProt Q5U3Y7). Conditions: Rat stomach membranes; cited from earlier work.
Data set [4] addresses I1-Imidazoline binding sites. Conditions: Bovine adrenomedullary cell; cited from earlier work.
Data set [5] has as its system mouse kidney proximal tubule, Ras transformed NIH-3T3 fibroblast, mouse glomerular mesangial, human Schwann tumor, rat glomerular endothelial cells, human …. Conditions: several ex-vivo and in-vitro cell assays; cited from earlier work.
Data set [6] concerns the target I2-Imidazoline binding sites. Conditions: Rat aorta smooth muscle cells; cited from earlier work.
Data set [7] concerns the target Nicotinic acetylcholine receptors. Conditions: Chick retina; cited from earlier work.
The target of data set [8] is I2-Imidazoline binding sites. Conditions: Bovine endothelial cells; cited from earlier work.
Data set [9] concerns the target I2-Imidazoline binding sites. Conditions: Human platelet-purified internal membranes; cited from earlier work.
Data set [10] addresses I2-Imidazoline binding sites. Conditions: Rabbit whole brain membranes; cited from earlier work.
In the next data set the target is 5-HT3 receptor (Mus musculus, UniProt P23979). Conditions: Mouse N1E-115 cells; cited from earlier work.
The target in another data set is α2C-Adrenoceptors (Homo sapiens, UniProt P18825). Conditions: Human recombinant receptor; cited from earlier work.
In data set [11] the target is I2-Imidazoline binding sites. Conditions: Bovine adrenal chromaffin cells; cited from earlier work.
Data set [12] has as its system Presynaptic imidazoline receptor. Conditions: Rabbit aorta; at 0.1 and 1 μM; cited from earlier work.
For a further data set, the target named is α-2 adrenoreceptors. Conditions: depending on organs/cell type; read-out: Affinity for α-2 adrenoreceptors (Ki); cited from earlier work.
Data set [13] deals with I2-Imidazoline binding sites. Conditions: Human atrial appendages; cited from earlier work.
Data set [14] concerns the target I2-Imidazoline binding sites. Conditions: Chicken brain membranes; cited from earlier work.
Data set [15] addresses Presynaptic imidazoline receptor. Conditions: Human atrial appendages; cited from earlier work.
For another data set, the system named is HTC rat hepatoma cells. Conditions: cited from earlier work.
A further data set has as its target α2-Adrenoceptors. Conditions: Bovine adrenal cortex; cited from earlier work.
Data set [16] has as its system ODC and SSAT in liver and kidney. Conditions: 456.6 mg/kg i.p., suiss female mice; cited from earlier work.
The target of data set [17] is NMDA receptor, NR1-ζ/NR2-ε1 (Mus musculus, UniProt P35436+P35438). Conditions: Recombinant receptor; cited from earlier work.
Data set [18] addresses NMDA receptor, NR1-ζ/NR2-ε4 (Mus musculus, UniProt P35438+Q03391). Conditions: Recombinant receptor; cited from earlier work.
Data set [19] deals with NMDA receptor, NR1-ζ/NR2-ε2 (Mus musculus, UniProt P35438+Q01097). Conditions: Recombinant receptor; cited from earlier work.
The target in data set [20] is σ2-Binding sites (Mus musculus, UniProt Q8VD00). Conditions: Mouse N1E-115 cells; cited from earlier work.
Data set [21] addresses I1-Imidazoline binding sites. Conditions: Human platelet-purified plasma membranes; cited from earlier work.
Another data set concerns the target α2B-Adrenoceptors (Homo sapiens, UniProt P18089). Conditions: Human recombinant receptor; cited from earlier work.
Data set [22] has as its target I2-Imidazoline binding sites. Conditions: Frog whole brain membranes; cited from earlier work.
The target in data set [23] is NMDA receptor, polyamine binding site. Conditions: Rat cerebral cortex; cited from earlier work.
The next data set deals with T1, NMDA receptor.
T1 construct: Ki; other: Rat cerebral membrane
Conditions: Rat cerebral membrane; cited from earlier work.

In data set [24] the target is NMDA receptor, MK-801 binding site. Conditions: Rat cerebral cortex; cited from earlier work.
For data set [25] the following is noted: cited from earlier work.
Data set [26] concerns the target I2-Imidazoline binding sites. Conditions: Rat whole brain membranes; cited from earlier work.
The target of data set [27] is I1-Imidazoline binding sites. Conditions: Rat stomach membranes; cited from earlier work.
The target in data set [28] is NMDA receptor, NR1-ζ/NR2-ε3 (Mus musculus, UniProt P35438+Q01098). Conditions: Recombinant receptor; cited from earlier work.
In a further data set the target is α2A-Adrenoceptors (Homo sapiens, UniProt P08913). Conditions: Human recombinant receptor; cited from earlier work.
Data set [29] deals with imidazoline or α-2-adrenergic receptors. Conditions: cited from earlier work.
The next data set concerns colonic microbiota. Kind of data set: Prodigest short-term colonic incubations with fecal inocula of five donors. It counts as cell-based, human. Conditions: FIG. 5. On the procedure:
Fecal material was collected from five healthy adult donors. Fecal suspensions were prepared and mixed with an internally optimized cryoprotectant. The obtained suspensions were aliquoted, flash frozen and then preserved at −80° C. (cryostock). Just before the experiment, fecal samples were defrosted and immediately added to the reactors. A short-term screening assay typically consists of a colonic incubation of a single dose of a test compound under conditions representative for the proximal large intestine, using bacterial inocula from selected donors as microbial sources. At the start of the short-term colonic incubations, test ingredients were added to a sugar-depleted nutritional medium containing basal nutrients of the colon. Because nutrients of this sugar-depleted nutritional medium will also be fermented by the colonic microbiota, a blank containing only the sugar-depleted nutritional medium (without product) was included for each donor. Finally, fecal inocula of five donors were added (healthy adult humans with no history of antibiotic use 6 months preceding the experiment). […] Reactors were incubated for 48 h at 37° C., under shaking (90 rpm) and anaerobic conditions. The incubations were performed in fully independent reactors with sufficiently high volume in order to not only ensure robust microbial fermentation, but also to allow the collection of multiple samples over time. Sample collection enables assessment of metabolite production and thus to understand the complex microbial interactions that are taking place. An assessment was made of the change in pH, and of gas, SCFA, ammonium and lactate production at the start of the incubation and after 6 h, 24 h and 48 h. Quantitative deep shotgun sequencing was performed at the start and after 24 h and 48 h of incubation. Targeted metabolic analysis of eight polyamines, an amino acid and a neurotransmitter was performed at the start of the incubation, and after 6 h, 24 h and 48 h. Targeted metabolic analysis: Eight different polyamines were targeted, more specifically putrescine, agmatine, acetyl-agmatine, omithine, spermidine, spermine, citrulline and 4-guanidinobutanoic acid. Additionally, samples were analyzed for amino acid arginine and neurotransmitter gamma-Aminobutyric acid (GABA).

Data set [30] deals with gut microbial polyamines, longevity. Conditions: arginine intake from 0 to 9 mg/g body weight; abolished after antibiotics use; cited from earlier work.
For data set [31] the following is noted: human, putrescine in test meal; cited from earlier work.
A short description of data set [32]: No observed effect level (max dose without toxicity). The format is in vivo. Conditions: [33].
For data set [33] the following is noted: rat, ten minutes after radiolabeled intravenous (IV) injection; cited from earlier work.
In a further data set the test system is autophagy. Conditions: depending on organ/cell type; cited from earlier work.
Another data set deals with polyamines synthesis. Conditions: mouse model of osteoporosis; cited from earlier work.

The values that follow come from patent publication US20250099515A1, “LACTOBACILLUS ACIDOPHILUS TO INCREASE AGMATINE PRODUCTION BY MICROBIOTA” (SOCIETE DES PRODUITS NESTLE S.A., priority 2021, published 2025).

For orientation: Ki means the dissociation constant of the complex between target and ligand, obtained from inhibition or displacement. Usually IC50 stands for the concentration that inhibits the measured activity by half.

Values joined by “and” are separate entries in the source; they are usually repeats but may differ in a detail not shown here. Equal values may be shown once. Read-outs that look alike come from different tables or passages of the source. Some results are limits rather than exact numbers.

5-HT3 receptor, sequence (P23979 24-489): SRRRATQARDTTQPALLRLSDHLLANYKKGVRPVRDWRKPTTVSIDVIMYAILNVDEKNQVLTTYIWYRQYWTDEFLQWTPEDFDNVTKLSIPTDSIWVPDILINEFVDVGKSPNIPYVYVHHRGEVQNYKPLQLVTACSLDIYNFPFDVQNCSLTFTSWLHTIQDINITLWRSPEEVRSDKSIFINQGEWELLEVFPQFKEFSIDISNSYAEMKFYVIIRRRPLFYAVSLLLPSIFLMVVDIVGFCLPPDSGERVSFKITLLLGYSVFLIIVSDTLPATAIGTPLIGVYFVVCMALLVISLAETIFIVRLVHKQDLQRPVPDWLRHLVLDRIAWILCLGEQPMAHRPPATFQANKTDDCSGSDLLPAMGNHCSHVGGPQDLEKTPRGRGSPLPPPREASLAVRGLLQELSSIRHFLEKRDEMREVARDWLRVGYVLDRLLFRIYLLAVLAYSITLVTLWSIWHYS
σ2-Binding sites (Mus musculus, UniProt Q8VD00), sequence (Q8VD00 whole entry): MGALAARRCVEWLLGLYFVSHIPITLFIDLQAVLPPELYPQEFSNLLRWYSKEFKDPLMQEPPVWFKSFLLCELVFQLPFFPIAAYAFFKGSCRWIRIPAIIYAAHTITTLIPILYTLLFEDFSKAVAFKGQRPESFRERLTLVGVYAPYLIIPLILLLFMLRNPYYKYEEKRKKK
NMDA receptor, NR1-ζ/NR2-ε3, sequence (Q01098 20-1239, other chains not shown): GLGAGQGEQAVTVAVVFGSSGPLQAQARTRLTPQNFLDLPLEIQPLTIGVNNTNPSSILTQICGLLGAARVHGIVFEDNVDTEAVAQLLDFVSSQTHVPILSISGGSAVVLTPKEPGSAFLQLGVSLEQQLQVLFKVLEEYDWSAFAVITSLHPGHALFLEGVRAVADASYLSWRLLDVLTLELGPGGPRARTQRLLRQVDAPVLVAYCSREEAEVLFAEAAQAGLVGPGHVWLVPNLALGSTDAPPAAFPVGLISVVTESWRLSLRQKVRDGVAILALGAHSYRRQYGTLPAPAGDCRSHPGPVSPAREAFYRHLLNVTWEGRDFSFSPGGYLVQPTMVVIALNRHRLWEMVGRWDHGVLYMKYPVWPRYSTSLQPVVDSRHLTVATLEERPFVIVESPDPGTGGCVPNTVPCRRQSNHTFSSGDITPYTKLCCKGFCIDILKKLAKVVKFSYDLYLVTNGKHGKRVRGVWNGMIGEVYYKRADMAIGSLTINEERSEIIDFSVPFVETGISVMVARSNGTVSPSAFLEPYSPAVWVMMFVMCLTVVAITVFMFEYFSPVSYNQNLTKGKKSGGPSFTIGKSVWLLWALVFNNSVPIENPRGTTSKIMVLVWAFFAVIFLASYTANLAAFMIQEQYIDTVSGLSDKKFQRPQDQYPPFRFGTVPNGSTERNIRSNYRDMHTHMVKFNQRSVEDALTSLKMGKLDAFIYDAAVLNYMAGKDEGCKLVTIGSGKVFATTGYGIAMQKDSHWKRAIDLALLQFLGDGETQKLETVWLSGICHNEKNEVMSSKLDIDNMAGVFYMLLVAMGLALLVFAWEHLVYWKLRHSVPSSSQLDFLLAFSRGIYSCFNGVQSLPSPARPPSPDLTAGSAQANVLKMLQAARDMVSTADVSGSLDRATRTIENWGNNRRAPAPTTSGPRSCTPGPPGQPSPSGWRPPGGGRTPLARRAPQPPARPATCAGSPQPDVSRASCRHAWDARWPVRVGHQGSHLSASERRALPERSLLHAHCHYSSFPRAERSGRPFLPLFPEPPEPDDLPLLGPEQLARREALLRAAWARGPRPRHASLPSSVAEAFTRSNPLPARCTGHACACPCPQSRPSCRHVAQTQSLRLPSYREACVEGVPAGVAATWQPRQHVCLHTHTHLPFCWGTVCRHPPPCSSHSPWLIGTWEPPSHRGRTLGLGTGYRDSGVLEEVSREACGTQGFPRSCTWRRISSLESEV
NMDA receptor, NR1-ζ/NR2-ε2, sequence (Q01097 27-1482, other chains not shown): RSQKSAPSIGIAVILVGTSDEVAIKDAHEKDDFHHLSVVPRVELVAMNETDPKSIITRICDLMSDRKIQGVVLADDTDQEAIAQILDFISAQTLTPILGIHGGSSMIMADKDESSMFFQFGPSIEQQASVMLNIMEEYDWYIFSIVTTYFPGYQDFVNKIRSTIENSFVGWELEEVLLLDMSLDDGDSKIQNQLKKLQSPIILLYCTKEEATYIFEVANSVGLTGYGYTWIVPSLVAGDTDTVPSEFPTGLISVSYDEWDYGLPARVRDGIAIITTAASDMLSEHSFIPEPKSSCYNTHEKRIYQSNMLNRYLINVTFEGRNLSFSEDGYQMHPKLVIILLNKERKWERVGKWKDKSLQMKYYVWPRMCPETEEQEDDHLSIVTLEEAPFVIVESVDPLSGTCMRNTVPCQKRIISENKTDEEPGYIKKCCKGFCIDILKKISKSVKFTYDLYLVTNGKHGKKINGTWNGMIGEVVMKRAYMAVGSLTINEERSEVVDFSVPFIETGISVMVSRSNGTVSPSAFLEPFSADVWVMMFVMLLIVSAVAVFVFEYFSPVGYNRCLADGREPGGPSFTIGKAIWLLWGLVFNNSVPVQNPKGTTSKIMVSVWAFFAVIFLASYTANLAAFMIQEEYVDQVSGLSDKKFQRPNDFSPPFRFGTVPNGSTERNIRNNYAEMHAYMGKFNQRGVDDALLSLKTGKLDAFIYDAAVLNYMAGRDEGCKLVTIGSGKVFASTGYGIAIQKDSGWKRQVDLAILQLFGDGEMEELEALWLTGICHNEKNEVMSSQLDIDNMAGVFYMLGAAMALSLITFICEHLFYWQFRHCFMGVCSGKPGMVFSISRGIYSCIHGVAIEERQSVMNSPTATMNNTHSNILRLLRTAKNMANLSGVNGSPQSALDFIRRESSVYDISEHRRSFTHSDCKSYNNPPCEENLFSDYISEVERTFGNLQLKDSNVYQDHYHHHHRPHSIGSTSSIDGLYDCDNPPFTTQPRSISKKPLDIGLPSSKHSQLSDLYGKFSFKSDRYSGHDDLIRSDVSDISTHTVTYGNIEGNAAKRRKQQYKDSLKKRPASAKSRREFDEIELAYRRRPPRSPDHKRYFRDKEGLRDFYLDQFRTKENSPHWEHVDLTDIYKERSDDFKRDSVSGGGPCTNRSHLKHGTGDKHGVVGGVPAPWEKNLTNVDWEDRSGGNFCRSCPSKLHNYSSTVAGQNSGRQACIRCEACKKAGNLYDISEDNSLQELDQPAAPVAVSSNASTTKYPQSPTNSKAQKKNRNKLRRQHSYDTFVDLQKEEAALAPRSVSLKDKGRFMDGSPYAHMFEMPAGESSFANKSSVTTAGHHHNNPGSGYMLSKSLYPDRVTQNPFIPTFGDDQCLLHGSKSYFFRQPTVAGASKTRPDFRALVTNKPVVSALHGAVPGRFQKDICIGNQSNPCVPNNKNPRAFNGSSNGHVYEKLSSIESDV
α2C-Adrenoceptors, sequence (P18825 whole entry): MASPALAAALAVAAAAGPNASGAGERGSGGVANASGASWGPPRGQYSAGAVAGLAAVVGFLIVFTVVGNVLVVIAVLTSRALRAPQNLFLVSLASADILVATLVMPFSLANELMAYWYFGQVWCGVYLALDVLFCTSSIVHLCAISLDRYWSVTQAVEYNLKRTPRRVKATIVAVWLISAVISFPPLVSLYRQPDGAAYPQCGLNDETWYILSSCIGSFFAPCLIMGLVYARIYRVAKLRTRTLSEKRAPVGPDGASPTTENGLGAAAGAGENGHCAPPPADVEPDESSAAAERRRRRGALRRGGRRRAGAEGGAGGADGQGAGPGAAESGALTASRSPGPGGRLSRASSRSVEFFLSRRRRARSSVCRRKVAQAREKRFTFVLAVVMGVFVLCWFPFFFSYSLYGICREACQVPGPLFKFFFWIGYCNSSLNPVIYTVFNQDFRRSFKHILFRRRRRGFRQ
α2A-Adrenoceptors, sequence (P08913 whole entry): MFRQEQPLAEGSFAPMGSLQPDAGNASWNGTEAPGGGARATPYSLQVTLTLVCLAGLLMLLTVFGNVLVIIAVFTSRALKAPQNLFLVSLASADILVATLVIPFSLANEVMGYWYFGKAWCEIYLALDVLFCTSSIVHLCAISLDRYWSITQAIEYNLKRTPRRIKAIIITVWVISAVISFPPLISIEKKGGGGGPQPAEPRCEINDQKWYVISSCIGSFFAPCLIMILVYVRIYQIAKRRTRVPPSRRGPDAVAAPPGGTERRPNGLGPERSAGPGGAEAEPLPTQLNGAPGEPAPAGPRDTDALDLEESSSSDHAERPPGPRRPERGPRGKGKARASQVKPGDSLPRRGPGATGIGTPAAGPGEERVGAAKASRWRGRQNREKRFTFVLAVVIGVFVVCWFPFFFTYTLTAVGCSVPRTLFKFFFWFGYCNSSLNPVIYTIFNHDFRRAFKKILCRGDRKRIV
σ2-Binding sites (Rattus norvegicus, UniProt Q5U3Y7), sequence (Q5U3Y7 whole entry): as the sequence (Q8VD00 whole entry) above, with L4V, A5T, L26M, V33L, L71F, A105V, L118I, V127I, S136N, Y169F counted along it
α2B-Adrenoceptors, sequence (P18089 whole entry): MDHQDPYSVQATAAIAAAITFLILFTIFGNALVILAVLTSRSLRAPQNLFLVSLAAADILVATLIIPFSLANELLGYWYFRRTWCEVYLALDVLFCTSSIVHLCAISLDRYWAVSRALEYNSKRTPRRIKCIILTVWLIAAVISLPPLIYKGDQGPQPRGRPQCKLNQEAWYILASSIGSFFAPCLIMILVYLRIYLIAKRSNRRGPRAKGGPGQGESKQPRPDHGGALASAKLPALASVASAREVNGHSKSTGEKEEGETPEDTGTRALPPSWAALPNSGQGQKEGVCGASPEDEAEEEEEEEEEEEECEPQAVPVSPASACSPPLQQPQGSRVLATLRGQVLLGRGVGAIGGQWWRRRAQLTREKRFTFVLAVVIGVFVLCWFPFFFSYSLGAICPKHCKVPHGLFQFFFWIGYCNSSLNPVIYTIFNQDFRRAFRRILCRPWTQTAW

Consider `NCCCCN=C(N)N` [Agmatine, (4-aminobutyl) guanidine], for which the inhibitory constant (Ki) in data set [1] was 0.7 µM; in [2], 266 µM; at σ2-Binding sites [3], 668 µM; in [4] it was 0.127 µM; in data set [6] it was 0.24 µM; in data set [8], 0.24 µM. In addition, the Ki was 74.4 µM in data set [9]; 856 µM in [10]; more than 1000 µM at 5-HT3 receptor; 26.3 µM on α2C-Adrenoceptors; 6 µM in data set [11]; 0.8 to 164 µM at α-2 adrenoreceptors. The Ki is more than 100 µM in data set [13]; 0.63 µM in [14]; more than 300 µM in data set [15]; 11 to 20 µM and 17 µM at α2-Adrenoceptors; 0.033 µM in [21]; 164 µM on α2B-Adrenoceptors. The Ki in data set [22] is 7.5 µM; in data set [23], 14.8 µM; on NMDA receptor, 50 µM; in [24] it was 219 µM; in data set [26], 417 µM; in data set [27], 0.098 µM. The Ki at α2A-Adrenoceptors is 47 µM. In addition, the “level at which agmatine interferes with polyamine metabolism, nitric oxide synthase and promotes antiproliferative effects” value in data set [5] is 1 mM; in the data set with HTC rat hepatoma cells it was 0.01 mM. Also, the IC50 was more than 1000 µM in data set [7]; 708 µM on 5-HT3 receptor; 286 µM in [17]; 289 µM in data set [18]; 330 µM in data set [19]; more than 1000 µM on σ2-Binding sites [20]. Also, in data set [28], the IC50 is 326 µM. Further, the Inhibition entry in data set [12] was “Inhibition at 0.1 and 1 μM”. Further, in [16], the “effect on ODC and SSAT in liver and kidney” value was “inhibition of ODC and activation of SSAT”. In data set [16], the “effect on epithelial cell proliferation in kidney renal tubule” value is “partial reduction of epithelial cell proliferation”. Further, the “no observed effect level (max dose without toxicity)” value in data set [25] (in vivo) is listed as 2.67 g daily.

On to `N=C(N)NCCC[C@H](N)C(=O)O` [Arginine, arginine], for which the Ki in data set [29] is 5000 µM. Also, the agmatine produced entry in the data set with colonic microbiota (stool sample of donor A) is “about 5 μM”; with colonic microbiota (stool sample of donor B), “about 3 μM”; in the data set with colonic microbiota (stool sample of donor C), “did not produce agmatine”; in the data set on colonic microbiota (stool sample of donor D), “did not produce agmatine”; in the data set on colonic microbiota (stool sample of donor E) it was “about 5 μM”. Moreover, the “effect on fecal concentration of putrescine and spermidine” value in data set [30] was “increased”.

With `NCCCCN` [Putrescine, putrescine], the recovered in blood entry in data set [31] is given as “Up to 20%”. Moreover, in data set [32], the “no observed effect level (max dose without toxicity), total amount in brackets” value is on record as “(~12 g)”. Further, the plasma decrease in data set [33] is recorded as 67%. Also, in data set [25] ([33]), the “no observed effect level (max dose without toxicity)” value is 180 mg/kg body mg/kg body weight/day.

On to `NCCCCNCCCN` [Spermidine, spermidine], for which the “Dose required for cytoprotective effect/e.g. autophagy” value in the data set on autophagy was 10 to 100 µM. The “no observed effect level (max dose without toxicity), total amount in brackets” value in data set [32] is on record as “(~5.4 g)”. For the same compound, in data set [33], the plasma decrease is on record as 89%. The “no observed effect level (max dose without toxicity)” value in [25] ([33]) is listed as 83 mg/kg body mg/kg body weight/day.

Regarding `NCCCNCCCCNCCCN` [Spermine, spermine], the plasma decrease in [33] is 30%.

For `CC(=O)NCC(=O)O.CC(=O)NCC(=O)O.N=C(N)c1ccc(N=NNc2ccc(C(=N)N)cc2)cc1` [diminazene aceturate], the “effect on warm-induced bone benefits” value in the data set on polyamines synthesis is recorded as “limited the warm-induced beneficial effects”.
